Results from ChEMBL document CHEMBL3217647, “Prospective use of molecular field points in ligand-based virtual screening: efficient identification of new reversible Cdc25 inhibitors” (Medchemcomm, 2013).

Legend:
[1] = target: T1, M-phase inducer phosphatase 3 (Homo sapiens, UniProt P30307); experiment: Inhibition of Cdc25C (unknown origin) phosphatase activity assessed as fluorescence by BMG plate reader in the presence of 0.005% Tween-20
T1 sequence (P30307 whole entry): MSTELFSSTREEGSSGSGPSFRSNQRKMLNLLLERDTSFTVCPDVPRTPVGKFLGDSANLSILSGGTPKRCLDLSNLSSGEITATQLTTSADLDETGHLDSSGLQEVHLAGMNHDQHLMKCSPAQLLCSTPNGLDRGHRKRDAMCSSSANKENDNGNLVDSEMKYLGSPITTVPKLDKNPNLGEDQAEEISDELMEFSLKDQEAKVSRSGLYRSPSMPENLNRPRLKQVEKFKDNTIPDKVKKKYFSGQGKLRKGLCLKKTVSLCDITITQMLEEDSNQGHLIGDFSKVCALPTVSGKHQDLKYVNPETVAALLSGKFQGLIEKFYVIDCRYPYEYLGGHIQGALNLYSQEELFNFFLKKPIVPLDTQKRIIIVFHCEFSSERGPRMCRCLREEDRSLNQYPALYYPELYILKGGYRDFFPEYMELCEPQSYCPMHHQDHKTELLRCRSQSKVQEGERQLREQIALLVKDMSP

[2] = target: T2, Dual specificity protein phosphatase 3 (Homo sapiens, UniProt P51452); experiment: Inhibition of human His-tagged VHR phosphatase activity assessed as fluorescence by BMG plate reader in the presence of 0.005% Tween-20
T2 sequence (P51452 whole entry): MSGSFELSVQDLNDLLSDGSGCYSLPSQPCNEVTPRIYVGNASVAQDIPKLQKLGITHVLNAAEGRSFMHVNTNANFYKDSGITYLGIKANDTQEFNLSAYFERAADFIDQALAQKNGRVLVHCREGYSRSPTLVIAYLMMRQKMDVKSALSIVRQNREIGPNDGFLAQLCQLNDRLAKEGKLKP

[3] = target: T3, M-phase inducer phosphatase 2 (Homo sapiens, UniProt P30305); experiment: Inhibition of Cdc25B (unknown origin) phosphatase activity assessed as fluorescence by BMG plate reader in the presence of 0.005% Tween-20
T3 sequence (P30305 whole entry): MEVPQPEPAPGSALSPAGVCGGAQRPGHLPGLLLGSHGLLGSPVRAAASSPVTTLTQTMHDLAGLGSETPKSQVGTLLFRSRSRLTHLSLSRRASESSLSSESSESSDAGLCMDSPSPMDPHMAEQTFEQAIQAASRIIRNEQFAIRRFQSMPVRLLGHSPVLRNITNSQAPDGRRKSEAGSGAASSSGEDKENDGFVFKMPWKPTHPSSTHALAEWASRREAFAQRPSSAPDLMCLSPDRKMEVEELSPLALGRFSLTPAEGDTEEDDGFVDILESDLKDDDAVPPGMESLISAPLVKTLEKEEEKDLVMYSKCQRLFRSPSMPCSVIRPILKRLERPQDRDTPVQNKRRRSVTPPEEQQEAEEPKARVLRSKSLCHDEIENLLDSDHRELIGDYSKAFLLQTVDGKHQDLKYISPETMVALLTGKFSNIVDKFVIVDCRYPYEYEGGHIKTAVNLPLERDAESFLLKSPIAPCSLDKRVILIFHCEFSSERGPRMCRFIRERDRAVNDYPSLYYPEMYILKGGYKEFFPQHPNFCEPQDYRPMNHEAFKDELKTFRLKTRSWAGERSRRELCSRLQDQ

[4] = target: T4, M-phase inducer phosphatase 1 (Homo sapiens, UniProt P30304); experiment: Inhibition of Cdc25A (unknown origin) phosphatase activity assessed as fluorescence by BMG plate reader in the presence of 0.005% Tween-20
T4 sequence (P30304 whole entry): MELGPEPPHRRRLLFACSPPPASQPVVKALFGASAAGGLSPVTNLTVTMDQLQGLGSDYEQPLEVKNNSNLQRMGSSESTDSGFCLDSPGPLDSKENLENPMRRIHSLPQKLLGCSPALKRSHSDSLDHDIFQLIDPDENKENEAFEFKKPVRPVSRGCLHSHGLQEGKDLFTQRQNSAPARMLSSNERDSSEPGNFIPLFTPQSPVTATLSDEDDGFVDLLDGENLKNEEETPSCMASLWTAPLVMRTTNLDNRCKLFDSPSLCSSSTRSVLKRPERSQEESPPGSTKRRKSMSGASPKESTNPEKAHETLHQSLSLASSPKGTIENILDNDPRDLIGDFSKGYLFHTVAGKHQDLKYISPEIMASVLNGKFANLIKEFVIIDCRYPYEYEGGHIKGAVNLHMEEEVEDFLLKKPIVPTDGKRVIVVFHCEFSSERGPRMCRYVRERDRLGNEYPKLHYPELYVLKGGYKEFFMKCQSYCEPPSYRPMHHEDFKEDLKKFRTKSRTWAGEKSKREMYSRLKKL

Homo sapiens [5] = species on record: Homo sapiens; experiment: Inhibition of MKP-5/p38 (unknown origin) phosphatase activity assessed as fluorescence at 100 uM by BMG plate reader in the presence of 0.005% Tween-20
[6] = target: T1, M-phase inducer phosphatase 3; experiment: Inhibition of Cdc25C (unknown origin) phosphatase activity assessed as fluorescence by BMG plate reader in the absence of detergent
[7] = target: T2, Dual specificity protein phosphatase 3; experiment: Inhibition of human His-tagged VHR phosphatase activity assessed as fluorescence by BMG plate reader in the absence of detergent
Homo sapiens [8] = species on record: Homo sapiens; experiment: Inhibition of alkaline phosphatase (unknown origin) phosphatase activity assessed as fluorescence at 100 uM by BMG plate reader in the presence of 0.005% Tween-20
[9] = target: T5, Tyrosine-protein phosphatase non-receptor type 1 (Homo sapiens) (UniProt P18031); experiment: Inhibition of PTP1B (unknown origin) phosphatase activity assessed as fluorescence at 100 uM by BMG plate reader in the presence of 0.005% Tween-20
T5 sequence (whole entry): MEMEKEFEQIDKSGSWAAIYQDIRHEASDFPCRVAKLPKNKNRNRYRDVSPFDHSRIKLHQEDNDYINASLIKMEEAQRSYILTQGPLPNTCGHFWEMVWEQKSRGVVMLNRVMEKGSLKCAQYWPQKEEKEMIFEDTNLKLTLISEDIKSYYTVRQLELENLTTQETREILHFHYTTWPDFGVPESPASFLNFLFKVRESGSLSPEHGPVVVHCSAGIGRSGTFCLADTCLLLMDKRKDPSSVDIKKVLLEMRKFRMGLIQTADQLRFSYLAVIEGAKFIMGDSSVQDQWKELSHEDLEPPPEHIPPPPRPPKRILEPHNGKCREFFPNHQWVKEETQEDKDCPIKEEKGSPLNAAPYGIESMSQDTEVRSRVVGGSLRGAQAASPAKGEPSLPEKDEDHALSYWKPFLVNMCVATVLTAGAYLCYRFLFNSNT

[10] = target: T4, M-phase inducer phosphatase 1; experiment: Inhibition of Cdc25A (unknown origin) phosphatase activity assessed as fluorescence by BMG plate reader in the absence of detergent
[11] = target: T3, M-phase inducer phosphatase 2; experiment: Inhibition of Cdc25B (unknown origin) phosphatase activity assessed as fluorescence by BMG plate reader in the absence of detergent

| Compound | IC50 [1] | IC50 [2] | IC50 [3] | IC50 [4] | inhibition (Homo sapiens [5]) | IC50 [6] | IC50 [7] | inhibition (Homo sapiens [8]) | inhibition [9] | IC50 [10] | IC50 [11] |
| --- | --- | --- | --- | --- | --- | --- | --- | --- | --- | --- | --- |
| O=C(Nc1nc(-c2ccc(F)cc2)cs1)c1cnccn1 | 40 µM | > 100 µM | 16 µM | 25.7 µM | – | – | – | – | – | – | – |
| Cc1cccc(-c2nc(-c3ccc4c(c3)CCN4S(C)(=O)=O)cs2)c1 | 37.8 µM | 40.1 µM | 34.4 µM | 31.8 µM | < 50% | 24.3 µM | 8 µM | < 50% | < 50% | 5.6 µM | 19 µM |
| CCOC(=O)C1=C(C)N=c2s/c(=C\c3ccc(O)cc3)c(=O)n2C1c1ccc2c(c1)OCO2 (configuration not stated) | – | – | 13 µM | – | – | – | – | – | – | – | – |
| COc1ccc(-c2nc(-c3ccc4c(c3)CCN4S(C)(=O)=O)cs2)cc1 | 42.5 µM | 45.4 µM | 26.1 µM | 42.9 µM | < 50% | 18 µM | 8.1 µM | < 50% | < 50% | 6.5 µM | 17.5 µM |
| O=S(=O)(Cc1ccco1)Cc1nc(-c2ccc(-c3ccccc3)cc2)cs1 | 9.7 µM | 26 µM | 1.7 µM | 2.7 µM | – | – | – | – | – | – | – |
| CCOc1ccc(-c2nc(-c3ccc4[nH]c(=O)[nH]c4c3)cs2)cc1 | 47.3 µM | 20.1 µM | 17.9 µM | 23.6 µM | < 50% | 10.2 µM | 1.9 µM | < 50% | < 50% | 2.4 µM | 8.9 µM |
| O=C(CCC(=O)Nc1nc(-c2cc3ccccc3oc2=O)cs1)NCc1ccc2c(c1)OCO2 | 8.2 µM | 17 µM | 0.9 µM | 20.1 µM | – | – | – | – | – | – | – |
| COc1ccc(-c2csc(-c3cccc(NC(=O)C4CC4)c3)n2)cc1 | 42.2 µM | > 100 µM | > 100 µM | > 100 µM | – | 16.8 µM | 8.9 µM | – | – | 10.2 µM | 14.9 µM |
| O=C1C(=O)c2c(C(=O)c3ccccc3)coc2-c2ccccc21 | 5 µM | – | 5 µM | 5 µM | – | – | – | – | – | – | – |
| CCOc1ccc(-c2nn(-c3ccccc3)cc2/C=C2\SC(=O)N(C)C2=O)cc1Br | – | – | 2 µM | – | – | – | – | – | – | – | – |
| O=c1[nH]c2cc(S(=O)(=O)Nc3cccc(-c4csc(-c5ccccc5)n4)c3)ccc2o1 | 44.4 µM | 34.8 µM | 3.5 µM | 2.2 µM | – | – | – | – | – | – | – |
| CCOc1ccc(-c2nc(-c3ccc4ccccc4c3)cs2)cc1 | 71.5 µM | 61 µM | > 100 µM | 30 µM | < 50% | 31.5 µM | 4.4 µM | < 50% | < 50% | 13 µM | 13.6 µM |
| O=C(Nc1cccc(-c2csc(-c3ccccc3)n2)c1)c1ccco1 | > 100 µM | > 100 µM | > 100 µM | > 100 µM | – | > 100 µM | 26.1 µM | – | – | 17.8 µM | > 100 µM |
| CCOc1ccc(-c2nc(-c3ccc4c(c3)CC(=O)N4C)cs2)cc1 | 47.6 µM | 64.5 µM | 50 µM | 33.6 µM | < 50% | > 100 µM | 10.6 µM | < 50% | < 50% | 9.5 µM | 22.7 µM |
| N#Cc1ccc(-c2csc(-c3ccc(-c4csnn4)cc3)n2)cc1 | 8.8 µM | > 100 µM | 3.1 µM | 12.2 µM | – | – | – | – | – | – | – |
| COc1ccccc1-c1nc(-c2ccc3c(c2)CCN3S(C)(=O)=O)cs1 | 42.6 µM | 40.2 µM | 31.3 µM | 41.7 µM | < 50% | 14.2 µM | 2.7 µM | < 50% | < 50% | 4 µM | 10.1 µM |
| COc1ccc(-c2nc(-c3cc(C)n(CC4CCCO4)c3C)cs2)cc1 (configuration not stated) | > 100 µM | 33.3 µM | 23.6 µM | 31.1 µM | < 50% | 24.7 µM | 8.3 µM | < 50% | < 50% | 6.4 µM | 12.1 µM |
| O=C(Nc1cccc(-c2csc(-c3ccccc3)n2)c1)c1cccc(=O)[nH]1 | 8.6 µM | > 100 µM | 4.2 µM | 6.9 µM | – | – | – | – | – | – | – |
| O=C(/C=C/c1ccc2c(c1)OCO2)Nc1nc(-c2ccc(F)cc2F)cs1 | 11 µM | 65.7 µM | 2.69 µM | 7.5 µM | – | – | – | – | – | – | – |
| COc1ccc(-c2nc(C(=O)Nc3ccc[nH]c3=O)cs2)cc1 | – | > 100 µM | 6.8 µM | 17.5 µM | – | – | – | – | – | – | – |
| O=C(CCC(=O)NC1CCCC1)Nc1nc(-c2cc3ccccc3oc2=O)cs1 | 9.4 µM | 24.9 µM | 5.9 µM | 12.3 µM | – | – | – | – | – | – | – |
| COc1ccc(-c2nc(-c3cnc(N)nc3)cs2)cc1 | > 100 µM | > 100 µM | 19.7 µM | 25 µM | – | – | – | – | – | – | – |
